Data: PubChem BioAssay AID1320 (NMMLSC, 2008)
Activity calls are given as the source filed them. The rule behind the calls is not given here.

target: Bcl-2-related protein A1 (Homo sapiens) (UniProt Q16548); assay: inhibitors of Bim binding to Bfl-1, dose response, biochemical, multiplexed, bead-based flow cytometry (AID 1320); details: Bim peptide-Bfl-1 binding, fluorescence; note: test concentration not given here
Sequence (Q16548 whole entry, looked up): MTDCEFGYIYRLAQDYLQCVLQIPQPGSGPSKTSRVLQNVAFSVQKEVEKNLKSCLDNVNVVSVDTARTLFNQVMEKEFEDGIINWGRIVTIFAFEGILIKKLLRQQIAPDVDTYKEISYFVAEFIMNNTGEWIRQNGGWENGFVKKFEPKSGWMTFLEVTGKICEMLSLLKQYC

Percent span (inhibition), inactive:
O=C(NCCCN1CCCC1=O)NC1CCCCC1, Cc1cc(-c2nnc(CCC(=O)NC(C)c3cccc4ccccc34)o2)no1 (stereo not given), COc1ccc(C(=O)Nc2ccc(C(=O)OCC(=O)c3cccc4ccccc34)cc2)cc1, CC(C)c1ccc(C2CC(c3ccc(Br)cc3)=NN2C(N)=S)cc1 (stereo not given), CCOC(=O)C1(Cc2cccc(OC)c2)CCN(Cc2cccc(OC)c2OC)CC1, CC(/C=C/C(=O)c1ccc(C)cc1)=C\c1ccccc1, O=C(CCc1ccccc1)N1CCN(c2ccccn2)CC1, Cc1ccc(-c2cc(C(=O)Nc3ccccn3)c3ccccc3n2)o1, CCOC(=O)c1c(NC(=O)c2ccccc2N(C)S(=O)(=O)c2ccccc2)sc2c1CCCC2, CC(NCc1ccc(-c2ccccc2)cc1)C(O)c1ccccc1 (stereo not given), COCCNC(=S)Nc1cc(OC)c(OC)cc1C#N, O=C(Nc1ccccn1)c1cc2ccccc2o1, Cc1ccnc(NS(=O)(=O)c2ccc(NC(=O)c3c(-c4ccccc4Cl)noc3C)cc2)n1, CCOc1ccc(N2C(=O)C(Cl)=C(Nc3ccccc3O)C2=O)cc1, Cc1cccc(Nc2nc(-c3ccncc3)cs2)c1, Cc1cc(N2CCN(C)CC2)nc2ccc(NC(=S)N3CCN(c4cccc(Cl)c4)CC3)cc12, Cc1ccc(NC(=S)N2CCn3cccc3C2c2cccnc2)cc1 (stereo not given), CC(C)(C)OC(=O)N1CCN(C(=O)[C@H](Cc2ccc(O)cc2)n2cc(CCO)nn2)CC1, CCOC(=O)/C(=C\c1ccc(Cl)cc1)c1nc2sc(C)c(C)c2c(=O)[nH]1, CCOCCOc1nc2c(c(=O)n(C)c(=O)n2C)n1CCc1ccccc1, CN(CC(=O)O/N=C(\N)c1ccc([N+](=O)[O-])cc1)S(=O)(=O)c1ccccc1, O=S1(=O)N=C(N(CCO)/N=C/c2ccncc2)c2ccccc21, COc1ccc(CC(=O)Nc2ccc3nc(C)sc3c2)cc1OC, Cc1ccc(S(=O)(=O)N2CCCCC2)cc1NC(=O)COC(=O)c1ccccc1F, COc1ccccc1OCc1ccc(C(=O)Nc2ccccc2F)cc1, CN(C)c1ccc(C(=O)/C=C/c2ccc(Br)cc2)cc1, CCOC(=O)c1c2c3c(c(Cl)ccc3[nH]c1=O)C(=O)c1ccccc1-2, O=C(CCl)Nc1cccc2ncccc12, CN(C)c1cccc(NC(=O)C2(C)CC2(Cl)Cl)c1 (stereo not given), O=C(c1cc(=O)c2ccccc2o1)N1CCN(c2ccccc2F)CC1, CC1=NN(c2ccc(C)cc2)C(=O)/C1=C\c1ccc(Br)s1, CCOC(=O)C1(CC/C(C)=N\NC(N)=O)CC(C)(C)OC1=O (stereo not given), CCOC(=O)CCCNC(=O)c1cncc(O)c1, Nc1cccc(-c2cn3cccnc3n2)c1, CCNC(=S)Nc1cc(OCC)c(NC(=O)c2cccs2)cc1OCC
